Calls of active or inactive are those of the source. The calls are words filed in the database; no cut-off is given here.
How the values were obtained:
Acetylcholinesterase = target: T1, Acetylcholinesterase (Rattus norvegicus, UniProt P37136)
T1 sequence (P37136 whole entry): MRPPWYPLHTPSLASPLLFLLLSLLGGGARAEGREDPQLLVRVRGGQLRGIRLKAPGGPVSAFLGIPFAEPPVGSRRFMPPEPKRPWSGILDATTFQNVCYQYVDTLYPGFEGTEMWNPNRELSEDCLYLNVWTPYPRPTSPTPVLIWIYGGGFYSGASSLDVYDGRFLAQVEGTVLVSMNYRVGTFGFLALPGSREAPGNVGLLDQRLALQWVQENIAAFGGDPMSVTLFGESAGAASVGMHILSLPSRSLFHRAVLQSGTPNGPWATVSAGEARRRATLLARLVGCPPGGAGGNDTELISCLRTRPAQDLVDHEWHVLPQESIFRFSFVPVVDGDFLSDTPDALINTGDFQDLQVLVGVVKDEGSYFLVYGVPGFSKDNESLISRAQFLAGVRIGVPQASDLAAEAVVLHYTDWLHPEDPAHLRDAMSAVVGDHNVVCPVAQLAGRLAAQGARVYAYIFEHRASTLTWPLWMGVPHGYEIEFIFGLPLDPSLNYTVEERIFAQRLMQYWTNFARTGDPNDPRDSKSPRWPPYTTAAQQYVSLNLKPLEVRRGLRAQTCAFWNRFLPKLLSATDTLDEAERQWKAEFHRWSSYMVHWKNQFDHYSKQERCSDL
Description: Inhibition of AChE in Sprague-Dawley rat cortices using acetylthiocholine iodide as substrate by Ellman's method

tissue or blood = conditions: Rattus norvegicus, Sprague-Dawley, Serum
Description: Inhibition of BuChE in Sprague-Dawley rat serum by Ellman's method

Rattus norvegicus = species on record: Rattus norvegicus; assay: Inhibition of BuChE in Sprague-Dawley rat serum at 1 mM by Ellman's method; type: cell-free

COc1ccc(C(=O)OCCCCCCCCCN[C@H]2CCCc3[nH]c(=O)ccc32)cc1OC
IC50 (Acetylcholinesterase): 9.67 µM
IC50 (tissue or blood): 308 µM

COc1ccc(C(=O)NCCCCCN[C@H]2CCCc3[nH]c(=O)ccc32)cc1OC
IC50 (Acetylcholinesterase): 12 µM
IC50 (tissue or blood): 33 µM

COc1ccc(C(=O)OCCCCCCCN[C@H]2CCCc3[nH]c(=O)ccc32)cc1OC
IC50 (Acetylcholinesterase): 8.2 µM
IC50 (tissue or blood): 194 µM

COc1ccc(OCCCCCN[C@H]2CCCc3[nH]c(=O)ccc32)cc1OC
IC50 (Acetylcholinesterase): 0.59 µM
IC50 (tissue or blood): 42 µM

COc1cc2c(cc1OC)C(=O)C(CCCCN[C@H]1CCCc3[nH]c(=O)ccc31)C2 (mixture of isomers)
inhibition (Rattus norvegicus): inactive
IC50 (Acetylcholinesterase): 0.009 µM

COc1cc2c(cc1OC)C(=O)C(CCCN[C@H]1CCCc3[nH]c(=O)ccc31)C2 (mixture of isomers)
inhibition (Rattus norvegicus): inactive
IC50 (Acetylcholinesterase): 41 µM

COc1ccc(OCCCCCCN[C@H]2CCCc3[nH]c(=O)ccc32)cc1OC
IC50 (Acetylcholinesterase): 3.95 µM
IC50 (tissue or blood): 17.7 µM

COc1ccc(C(=O)OCCCN[C@H]2CCCc3[nH]c(=O)ccc32)cc1OC
IC50 (Acetylcholinesterase): 162 µM
IC50 (tissue or blood): 860 µM

COc1ccc(C(=O)OCCCCN[C@H]2CCCc3[nH]c(=O)ccc32)cc1OC
IC50 (Acetylcholinesterase): 4.1 µM
IC50 (tissue or blood): 15 µM

COc1cc2c(cc1OC)C(=O)C(CCCCN[C@@H]1CCCc3[nH]c(=O)ccc31)C2 (mixture of isomers)
inhibition (Rattus norvegicus): inactive
IC50 (Acetylcholinesterase): 0.53 µM

C/C=C1\[C@H]2C=C(C)C[C@]1(N)c1ccc(=O)[nH]c1C2 [HUPERZINE A]
IC50 (Acetylcholinesterase): 0.065 µM
IC50 (tissue or blood): 74 µM

COc1cc2c(cc1OC)C(=O)C(CCCCCCCCCN[C@H]1CCCc3[nH]c(=O)ccc31)C2 (mixture of isomers)
IC50 (Acetylcholinesterase): 2.6 µM
IC50 (tissue or blood): 678 µM

COc1cc2c(cc1OC)C(=O)C(CCCCCN[C@H]1CCCc3[nH]c(=O)ccc31)C2 (mixture of isomers)
inhibition (Rattus norvegicus): inactive
IC50 (Acetylcholinesterase): 0.187 µM

COc1cc2c(cc1OC)C(=O)C(CCCCCCN[C@H]1CCCc3[nH]c(=O)ccc31)C2 (mixture of isomers)
inhibition (Rattus norvegicus): inactive
IC50 (Acetylcholinesterase): 0.037 µM

COc1cc2c(cc1OC)C(=O)C(CCCCCCCN[C@H]1CCCc3[nH]c(=O)ccc31)C2 (mixture of isomers)
IC50 (Acetylcholinesterase): 1.86 µM
IC50 (tissue or blood): 413 µM

COc1ccc(C(=O)NCCCN[C@H]2CCCc3[nH]c(=O)ccc32)cc1OC
IC50 (Acetylcholinesterase): 88 µM
IC50 (tissue or blood): 139 µM

COc1ccc(C(=O)OCCCCCN[C@H]2CCCc3[nH]c(=O)ccc32)cc1OC
IC50 (Acetylcholinesterase): 7.2 µM
IC50 (tissue or blood): 460 µM
